Source: patent publication US5231216A, “Trans-2-acylaminocyclohexyloxyacyldipeptides in the form of mixtures of diastereoisomers thereof and in the form of pure diasteredisomers, process for the preparation thereof and pharmaceutical compositions containing the same” (Univerza Edvarda Kardelja v Ljubljana, priority 1990, dated 1993)
Like-named read-outs stand apart in the source and are kept apart here.

Legend:
peritoneal macrophages [1] = assay: Determination of the number of macrophages in peritoneal cavity washings; type: in vivo, female HAN-NmRI strain mice; details: daily doses 25, 2.5 and 0.25 μg on 3 days; after Brewer's thioglycolate stimulation
Description: (§1) Immunological studies were performed on female HAN-NmRI strain mice of 3-4 weeks, weighing from 17-20 g.
(§2) In tests 1.1 to 1.5, the animals were first administered the Brewer's thioglycolate medium by i.p. injection, which was followed after 6 hours by the injection of 0.5 ml of a solution containing 25 μg, 2.5 μg and 0.25 μg respectively of N-acetyl-muramyl-L-alanyl-D-isoglutamine (muramyl dipeptide, MDP) or of N-[trans-2-(2'-acetylaminocyclohexyloxy)acetyl]-L-alanyl-D-glutaminic acid (compound 1, Example 12B). Equal doses were administered to the animals on days 2 and 3. On day 4 the animals were sacrificed and the spleen and the peritoneal macrophages were isolated.
The number of macrophages in the peritoneal cavity washings was determined three days after the stimulation with Brewer's thioglycolate medium. The cells were suspended in ice-cold RPMI 1640 medium, to which trypan blue was added, and counted in Neubauer's chamber.

[2] = tested on: splenic lymphocytes (lymphocytes T) stimulated with concanavalin A; assay: Blast transformation of lymphocytes stimulated in vitro with concanavalin A after in vivo treatment; set-up: species or system female HAN-NmRI strain mice; details: for Amount of active thymidine incoporated in lymphocyte DNA (cpm), x ± s.e.m (n): control 10130 ± 476
Description: as §1, §2
Isolated splenic lymphocytes were prepared in a concentration of 1×10^6 /ml in the RPMI 1640 medium, to which there were added 10% of foetal calf serum (FCS) (Sera-Lab, Great Britain), 1 ml of 200 mM L-glutamine solution and 1 ml of an antibiotic solution (100 U/ml of penicillin and 100 μg/ml of streptomycin) for 100 ml of complete medium. To each flat bottom well of a microtitration plate (T grade, Nunc, Denmark) 100 μl of the cell suspension were distributed. The cells were stimulated in vitro by adding concanavalin A (con A)(Pharmacia, Sweden) at respective concentrations of 16, 8, and 4 μg/ml. Control lymphocyte cultures were grown in basal medium only. The cells were then incubated at 37° C., 5% CO2 and 95% humidity for 2 days, followed by the addition of tritium labelled thymidine. After 16 hours the samples were prepared for the measurement in a β-counter. The results were expressed as incorporation indexes with respect to the control group of the animals.

Fibrosarcoma SA-1 = details: for Time needed for the tumour growth to the volume of 150 mm^3, Number of days (± SD) / Growth delay (± SD): 5 doses; for Time needed for the tumour growth to the volume of 150 mm^3, Number of days (± SD): control 5.5 ± 0.8
Description: The studies were performed on A/J strain mice (Institute Rudjer Boskovic, Zagreb, Yugoslavia) of 8 to 10 weeks. All animals used in the same experiment were of the same sex and age.
Fibrosarcoma SA-1 was used as the experimental tumour model. Tumorous cells were obtained from the ascitic form of the SA-1 tumour of the syngeneic A/J mouse. They were implanted into animals dorsilaterally by s.c. injection of 5×10^5 tumour cells. The testing was started after the tumours had grown to a volume of 35 mm^3. The test substance was injected i.p. on five consecutive days in a dose of 2.5 or 25 μg. The growth of the tumours was monitored by measuring the diameters and the thickness of the tumours. The tumour volumes were calculated according to the formula 0.523×a×b×c (a, b and c being the tumour diameters).
The delay in the growth of each individual tumour was obtained by deducting the relevant time of growth of the tumour in the control group from the time needed for the growth of the tumour to reach the volume of 150 mm^3.

[3] = Toxicity, average lethal dose (LD50); type: in vivo; details: i.v. application, male mice
Description: The average lethal dose (LD50) at i.v. application of the compound 1 in male mice was >500 mg/kg.

splenic lymphocytes T = assay: Determination of the number of lymphocytes T (splenic, fluorescence microscopy); type: in vivo, female HAN-NmRI strain mice; details: daily doses 25, 2.5 and 0.25 μg on 3 days; spleen isolated on day 4
Description: as §1, §2
(§3) To the isolated splenic lymphocytes there were added fluorescein isothiocyanate labelled antimouse antibodies (for the determination of lymphocytes B) and anti-Thy 1 monoclonal antibodies (for the determination of lymphocytes T) respectively. After incubation and rinsing with RPMI 1640 medium (Gibco, Great Britain), the lymphocytes were counted by fluorescence microscopy.

peritoneal macrophages [4] = assay: Activation of peritoneal macrophages (ferricytochrome C reduction) with additional in vitro PMA stimulation; type: in vivo, female HAN-NmRI strain mice; details: for Difference in absorbancies of the test sample and of the blank per mg of cell protein, x ± s.e.m (n): control 1004 ± 38
Description: as §1, §2
(§4) The peritoneal cavity of the animals was rinsed with 4 ml of ice-cold RPMI 1640 medium. The cytolysis of erythrocytes was effected with 0.2% NaCl. The remaining cells were washed twice in a cooled centrifuge at 4° and 1500 rpm for 5 minutes with ice-cold RPMI 1640 medium. The cells were re-suspended and the concentration was adjusted to 1.5×10^6 /ml. The cell suspension was distributed among the flat bottom wells of a microtitration palte (T grade, Nunc, Denmark). After incubating for 2 hours at 37° C., 5% CO2 and 95% humidity, the wells were rinsed with warm RPMI 1640 medium and the adhering macrophages were used for testing.
(§5) After incubating for 90 minutes at 37° C., 5% CO2 and 95% humidity, the absorbance was measured at the wavelength of 570 nm.
(§6) The results are shown in Table 2 as the difference in the absorbance of the test sample and of the blank, calculated for 1 mg of cell protein.

lymphocytes B = assay: Determination of haemolytic plaques for the assessment of the maturation of lymphocytes B; type: in vivo, female HAN-NmRI strain mice; details: evaluation summary
Description: as §1
A 1% suspension of sheep erythrocytes (Institute of Microbiology, Faculty of Medicine, Ljubljana, Yugoslavia) in physiological saline was used for the immunisation. First, individual mice were administered 0.2 ml of this suspension by i.p. injection, followed next day by 0.1 ml (1 μg/mouse) of the test substance. The immunisation was completed on the fifth day after the administration of sheep erythrocytes and the mice were sacrificed.
Their spleens were removed and homogenized in Parker 199 Medium with added aminoacids, streptomycin and sodium carbonate (Torlak, Beograd, Yugoslavia). The lymphocytes were separated on the Ficol Separating Medium (Pharmacia, Uppsala, Sweden). After repeated rinsing with Parker 199 Medium, the cells were resuspended in RPMI 1640 nutrient medium with added 10% of foetal calf serum and streptomycin. To 50 μl of the cell suspension, 450 μl of trypan blue were added and the cells were counted in Neubauer's chamber. The number of lymphocytes per ml of the cell suspension was calculated. […] After the completion of the incubation, the plaques were counted under microscope.
The number of plaques per 1×10^6 cells was calculated according to the following equations: [formula]

[5] = Pyrogenous activity according to USP XXII; type: in vivo; details: method of USP XXII
Description: The pyrogenous activity was determined according to the method of USP XXII.

splenic lymphocytes B = assay: Determination of the number of lymphocytes B (splenic, fluorescence microscopy); type: in vivo, female HAN-NmRI strain mice; details: daily doses 25, 2.5 and 0.25 μg on 3 days; spleen isolated on day 4
Description: as §1, §2, §3

peritoneal macrophages [6] = assay: Activation of peritoneal macrophages (ferricytochrome C reduction) without additional PMA stimulation; type: in vivo, female HAN-NmRI strain mice; details: for Difference in absorbancies of the test sample and of the blank per mg of cell protein, x ± s.e.m (n): control 275 ± 26
Description: as §1, §2, §4, §5, §6

[7] = daily dose 0.25 μg for 3 consecutive days
[8] = daily dose 2.5 μg for 3 consecutive days
[9] = daily dose 25 μg for 3 consecutive days

In the case of CC(=O)N[C@@H]1CCCC[C@H]1OCC(=O)N[C@@H](C)C(=O)N[C@H](CCC(=O)O)C(=O)O (relative stereo) [Compound 1, N-[trans-2-(2'-acetylaminocyclohexyloxy)acetyl]-L-alanyl-D-glutaminic acid], the “number of peritoneal macrophages” value (peritoneal macrophages [1]) is reported as “not altered to a statistically significant extent”, the “Amount of active thymidine incoporated in lymphocyte DNA (cpm), x ± s.e.m (n)” value (shortened to “Amount of active thymidine incoporated”) [2, 7] is reported as 10780 ± 2680 cpm and the “Amount of active thymidine incoporated” value [2, 8] is reported as 16830 ± 6610 cpm. For the same molecule, the “Amount of active thymidine incoporated” value [2, 9] was 25990 ± 7850 cpm, the “immunomodulatory effect in lymphocytes T compared with MDP” value ([2]; dose 25 μg) was “statistically greater (p<0.05) immunomodulatory effect” and the “increase of the blastic activity of lymphocytes T” value ([2]; dose 25 μg, p<0.05, versus control) was “about 150%”. The “Time needed for the tumour growth to the volume of 150 mm^3, Number of days (± SD)” value (Fibrosarcoma SA-1; 2.5 μg daily i.p.) was 6.4 ± 0.9 days, the “Growth delay (± SD)” value (Fibrosarcoma SA-1; 2.5 μg daily i.p., p<0.2 compared with control) was 0.9 ± 0.4 and the “Time needed for the tumour growth to the volume of 150 mm^3, Number of days (± SD)” value (Fibrosarcoma SA-1; 25.0 μg daily i.p.) was 7.3 ± 1.3 days. The “Growth delay (± SD)” value (Fibrosarcoma SA-1; 25.0 μg daily i.p., p<0.002 compared with control) was 1.8 ± 0.4, the “difference in antitumour activity between the higher and the lower dose” value (Fibrosarcoma SA-1; 25 μg versus 2.5 μg) was “no statistically significant difference in activity between the higher and the lower dose” and the “delay in tumour growth in combination with tumour necrosis factor” value (Fibrosarcoma SA-1; compound 1 2.5 μg combined with recombinant tumour necrosis factor α (5×10^5 U)) was “increased delay in tumour growth”. For the same molecule, the “antitumour activity in comparison to the control” value (Fibrosarcoma SA-1; dose 25 μg, p<0.002) was “moderate and statistically significant”, the “average lethal dose (LD50)” value [3] was > 500 mg/kg and the “number of splenic lymphocytes T” value (splenic lymphocytes T) was “Neither the number of splenic lymphocites B nor of lymphocytes T was altered to a statistically significant extent”. The “Difference in absorbancies of the test sample and of the blank per mg of cell protein, x ± s.e.m (n)” value (peritoneal macrophages [4]; [7]) was 1298 ± 334, the “Difference in absorbancies of the test sample and of the blank per mg of cell protein, x ± s.e.m (n)” value (peritoneal macrophages [4]; [8]) was 1494 ± 199 and the “Difference in absorbancies of the test sample and of the blank per mg of cell protein, x ± s.e.m (n)” value (peritoneal macrophages [4]; [9]) was 1709 ± 374. For the same molecule, the “increase of macrophage activity” value (peritoneal macrophages [4]; dose 2.5 μg, p<0.05) was 50%, the “difference in macrophage activation between muramyl dipeptide and compound 1” value (peritoneal macrophages [4]; dose 25 μg) was “no statistically significant different” and the “increase of macrophage activity” value (peritoneal macrophages [4]; dose 25 μg) was 70%. For the same molecule, the “maturation of lymphocytes B to plasma cells” value (lymphocytes B) was “enhances the muturation of lymphocytes B to plasma cells”, the pyrogenous activity [5] was “did not show any pyrogenous activity” and the “number of splenic lymphocytes B” value (splenic lymphocytes B) was “Neither the number of splenic lymphocites B nor of lymphocytes T was altered to a statistically significant extent”. For the same molecule, the “Difference in absorbancies of the test sample and of the blank per mg of cell protein, x ± s.e.m (n)” value (peritoneal macrophages [6]; daily dose 0.25 μg) was 237 ± 94, the “Difference in absorbancies of the test sample and of the blank per mg of cell protein, x ± s.e.m (n)” value (peritoneal macrophages [6]; daily dose 2.5 μg) was 431 ± 85 and the “Difference in absorbancies of the test sample and of the blank per mg of cell protein, x ± s.e.m (n)” value (peritoneal macrophages [6]; daily dose 25 μg) was 489 ± 97. For the same molecule, the “increase of macrophage activity” value (peritoneal macrophages [6]; dose 2.5 μg, p<0.06) was 55%, the “difference in macrophage activation between muramyl dipeptide and compound 1” value (peritoneal macrophages [6]; dose 25 μg) was “no statistically significant different” and the “increase of macrophage activity” value (peritoneal macrophages [6]; dose 25 μg, p<0.05) was 70%.
